According to ChEMBL document CHEMBL1127964, “N-linked analogs of retinoid O-glucuronides: potential cancer chemopreventive/chemotherapeutic agents” (Bioorg Med Chem Lett, 1994):

Columns and labels:
[1] = target: T1, Retinoic acid receptor gamma (Homo sapiens, UniProt P13631); experiment: Inhibition of [3H]RA binding to Retinoic acid receptor RAR gamma
T1 sequence (P13631 whole entry): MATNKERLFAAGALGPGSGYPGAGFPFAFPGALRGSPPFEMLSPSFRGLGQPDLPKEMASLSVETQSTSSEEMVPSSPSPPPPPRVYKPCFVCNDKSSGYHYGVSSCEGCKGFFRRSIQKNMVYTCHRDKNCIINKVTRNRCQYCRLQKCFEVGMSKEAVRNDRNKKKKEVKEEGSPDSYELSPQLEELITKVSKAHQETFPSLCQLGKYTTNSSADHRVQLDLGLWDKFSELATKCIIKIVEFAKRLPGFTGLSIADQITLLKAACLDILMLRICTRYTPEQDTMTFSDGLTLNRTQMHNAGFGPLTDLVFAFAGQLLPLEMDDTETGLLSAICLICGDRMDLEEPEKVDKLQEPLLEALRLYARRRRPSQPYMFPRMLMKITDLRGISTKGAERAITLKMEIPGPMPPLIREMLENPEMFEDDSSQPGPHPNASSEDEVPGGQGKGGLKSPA

Rattus norvegicus = species on record: Rattus norvegicus; experiment: Antitumor activity against DMBA-induced mammary tumors in rats; format: functional
[2] = target: T1, Retinoic acid receptor gamma; experiment: Inhibition of [3H]RA to binding Retinoic acid receptor RAR gamma

CC1=C(/C=C/C(C)=C/C=C/C(C)=C/C(=O)NC2OC(C(=O)O)C(O)C(O)C2O)C(C)(C)CCC1 (stereo unspecified)
Ki [1]: 0.28 µM
Tumor (Rattus norvegicus): 0.83 number
Tumor incidence (Rattus norvegicus): 50%
Tumor latency (Rattus norvegicus): 64 days

CC1=C(/C=C/C(C)=C/C=C/C(C)=C/C(=O)NC2OC(CO)C(O)C(O)C2O)C(C)(C)CCC1 (stereo unspecified)
Tumor (Rattus norvegicus): 0.92 number
Tumor incidence (Rattus norvegicus): 58%
Tumor latency (Rattus norvegicus): 64 days
Ki [2]: 0.71 µM

CC1=C(/C=C/C(C)=C/C=C/C(C)=C/C(=O)O)C(C)(C)CCC1 [TRETINOIN]
Tumor (Rattus norvegicus): 1.17 number
Tumor incidence (Rattus norvegicus): 83%
Tumor latency (Rattus norvegicus): 49 days
